Data: patent US8927489B2, “Sustained release preparation of pro-insulin C-peptide” (Cebix Incorporated, priority 2005, dated 2015)

Legend:
[1] = Subcutaneous administration of C-peptide formulations in rats: C-peptide in serum; assay type: in vivo, Sprague-Dawley male rats; conditions: rat, sc, 75 nmole/kg as a common aqueous solution, within 2 h, data not shown, read-out: serum concentration of C-peptide
Method: About 1 ml of each sample was transferred to a plastic syringe with a Luer-lok Tip (Becton Dickinson), which then was sealed with a Combi Stopper (Braun). Prior to administration a 23G Microlance (Becton Dickinson) was connected to the syringe. Each syringe was weighed before and after administration to the animal.
Thirty Sprague-Dawley male rats with a body weight of about 300 g were divided into 5 groups of 6 animals to test the uptake of C-peptide in the formulations outlined above. […] The serum obtained by centrifugation was collected and stored at −80° C. until analysis. Determination of C-peptide in serum was performed by an automatic immunoassay system (AutoDELFIA™ C-peptide, Perkin Elmer, Wallac Oy, Turku, Finland), with a detection limit of 0.005 nM and a precision below 5%. To fit into the calibration curve, the samples were diluted prior to analysis 100 times.

[2] = cited from earlier work
[3] = dose injected into a rat; cited from earlier work

level at time molar [1]: < 1 nM
Compound: CC(C)C[C@H](NC(=O)[C@H](C)NC(=O)[C@H](CC(C)C)NC(=O)[C@@H]1CCCN1C(=O)[C@H](CCC(N)=O)NC(=O)[C@H](CC(C)C)NC(=O)[C@H](CO)NC(=O)CNC(=O)[C@H](C)NC(=O)CNC(=O)[C@@H]1CCCN1C(=O)CNC(=O)CNC(=O)CNC(=O)[C@H](CC(C)C)NC(=O)[C@H](CCC(=O)O)NC(=O)[C@@H](NC(=O)[C@H](CCC(N)=O)NC(=O)CNC(=O)[C@@H](NC(=O)[C@H](CCC(N)=O)NC(=O)[C@H](CC(C)C)NC(=O)[C@H](CC(=O)O)NC(=O)[C@H](CCC(=O)O)NC(=O)[C@H](C)NC(=O)[C@@H](N)CCC(=O)O)C(C)C)C(C)C)C(=O)N[C@@H](CCC(=O)O)C(=O)NCC(=O)N[C@@H](CO)C(=O)N[C@@H](CC(C)C)C(=O)N[C@@H](CCC(N)=O)C(=O)O [C-peptide, proinsulin C-peptide]
in vivo half life circulating in blood [2]: approximately 30 minutes
time within which an injected dose has disappeared entirely from circulation [3]: 2 to 3 h
